Data from patent publication US12090164B2, “Genotype-agnostic rescue of cystic fibrosis with small molecule bicarbonate channels” (The Board of Trustees of the University of Illinois, priority 2017, dated 2024).
Entries after “also recorded” stand apart in the source; their conditions may differ.

Experiments:
[1] = aerosolized NaHCO3; cited from earlier work
CuFi-1 epithelia = assay: ASL height by confocal microscopy; type: cell-based, human
Experimental: (§1) ASL height was studied using an established fluorescent dye assay (60, 61). Small diameter NuLi and CuFi-1 cultured epithelia were used for this experiment (0.33 cm^2). 24 hours prior to the start of experiment, the apical side of all cultured epithelia was rinsed three times with warm PBS to remove excess mucus. NuLi epithelia were treated with perfluorocarbon (FC-72) vehicle or 500 µM basolateral bumetanide in DMSO vehicle applied to the media, and CuFi epithelia were treated with 20 μL vehicle, 0.005, 0.5, or 50 μM AmB, or 0.5 μM C35deOAmB suspended in perfluorocarbon (FC-72, Sigma), with or without 500 μM basolateral bumetanide in DMSO vehicle applied to the media and incubated for 24 hours at 37° C. After 24 hours, 2.5 μL of a 2 mg/mL 70 kDa Texas Red-dextran conjugate (Molecular Probes) solution in PBS was added to the apical side of the epithelia, followed by 100 μL of FC-770 to prevent evaporation. Then the culture support was placed on top of 100 μL of PBS on a 10 mm glass bottom Fluorodish for imaging (World Precision Instruments). Epithelia were imaged immediately after dye addition and again at 24 hours to examine dye absorption. Three Z-stack images per membrane were taken on an Zeiss LSM700 confocal microscope at 40× oil immersion. These images were analyzed using ImageJ (62) to determine the average ASL height in the center 1300 pixels of each image. Images were smoothed, converted to 8-bit, and thresholded to most accurately represent the red area. The parameters for Analyze Particles were particles from 1-Infinity μm^2 in size and from 0%-100% circularity. Height was determined by dividing the area output in pixels by the known 1300 pixel width and converted to microns using the known scaling factor of 0.49 µm/pixel.

NuLi epithelia = assay: ASL height by confocal microscopy; type: cell-based, human; details: bumetanide 500 μM
Experimental: as §1

[2] = test system: CuFi-1 (ΔF508/ΔF508) epithelia; assay: ASL pH in cultured CF airway epithelia (SNARF-dextran); type: cell-based, human; details: for ASL pH, apical addition: AmB or C35deOAmB 2 μM, ivacaftor/forskolin 10 μM, 2 h, vs vehicle
Experimental: (§2) Small diameter NuLi, CuFi, and primary cultured epithelia were used for this experiment (0.33 cm^2). The ratiometric pH indicator SNARF-conjugated dextran (Molecular Probes) was used to measure ASL pH. SNARF powder was suspended via sonication in perfluorocarbon (FC-72, Sigma) and distributed onto the apical surface. ASL pH was measured 2 hr later (3, 4, 25). SNARF was excited at 488 nm and emission was recorded at 580 nm and 640 nm using a Zeiss LSM 800 microscope at 40× water immersion for cell line cultures and a Zeiss LSM 510 microscope for primary cultures. To generate a standard curve for pH determination, SNARF was dissolved in colorless pH standards and fluorescence ratios were converted to pH.
(§3) Agents tested in this assay were first lyophilized into powder and then suspended in the appropriate volume of perfluorocarbon (FC-72, Sigma) and sonicated for 1 minute to suspend. AmBisome should not be sonicated; instead, the fine powder was suspended by vortexing.
(§4) In all experiments, ASL pH of compound-treated epithelia was measured compared the results to vehicle-treated epithelia.
(§5) For apical AmB administration, cultured airway epithelia were incubated for 30 min-48 hrs at 37° C. before measurement of ASL pH. For AmB-cholesterol complex and C35deOAmB administration, cultured airway epithelia were incubated for 48 hrs at 37° C. before measurement of ASL pH. To test the effect of […] ATPase inhibition, AmB was administered 47 hours prior to 10 mM ouabain addition, and cultured airway epithelia were incubated for an additional 1 hr at 37° C. before measurement of ASL pH. For 10 μM ivacaftor/10 μM forskolin administration, cultured airway epithelia were incubated for 2 hrs at 37° C. before measurement of ASL pH (25). For basolateral AmB administration, a 2 mM stock of AmB in DMSO was diluted 1000-fold to a final concentration of 2 μM in USG media. The basolateral media of cultured airway epithelia was replaced with the AmB-containing USG media and incubated for 48 hrs at 37° C. before measurement of ASL pH.

[3] = test system: CuFi-4 (G551D/ΔF508) epithelia; assay: as above; type: cell-based, human
Experimental: as §2, §3, §4, §5

[4] = test system: CuFi-1 (ΔF508/ΔF508) epithelia; assay: Basolateral to apical H14CO3- transport; type: cell-based, human; details: for basolateral to apical H^14CO3^− transport, apical addition: over 10 minutes, AmB or C35deOAmB 2 μM, ivacaftor/forskolin 10 μM
Experimental: (§6) Small diameter NuLi and CuFi cultured epithelia were used for this experiment (0.33 cm^2). ^14C-labeled sodium HCO3^− was obtained as a sterile 35.7 mM aqueous solution pH 9.5 (MP Biomedicals 0117441H). All experiments were run less than 2 months post seeding. Fresh USG media was added to the basolateral side prior to experimentation. The apical membrane was treated with 20 μL of vehicle, AmB, or ivacaftor/forskolin as a suspension in perfluorocarbon-72 (Sigma Aldrich), and the cultured epithelia were incubated for 48 hours, 7 days, 14 days, or 28 days at 37° C. in a 5% C02 atmosphere. After the end of the treatment period, 5 μL of a 1.4 mM H^14CO3^− stock solution in USG media was added to the basolateral media. The cultured epithelia were then incubated at 37° C. for 10 minutes. After 10 minutes, the apical membrane of the cultured epithelia was immediately washed with 200 μL of PBS. The ASL wash and a 200 μL aliquot of the basolateral media were diluted in scintillation cocktail and analyzed via liquid scintillation counting (23).

[5] = test system: CuFi-4 (G551D/ΔF508) epithelia; assay: Basolateral to apical H14CO3- transport; type: cell-based, human; details: AmB 2 μM, ivacaftor/forskolin 10 μM
Experimental: as §6

[6] = test system: primary sinonasal epithelia from a patient with a G551D mutation; details: relative to untreated controls; cited from earlier work
[7] = test system: CF patients having at least one G551D allele; details: clinical trials; cited from earlier work
V520F allele = V520F allele (Homo sapiens, UniProt P13569, V520F); details: V520F allele (D259G/V520F); cited from earlier work
V520F allele, sequence (P13569 whole entry V520F): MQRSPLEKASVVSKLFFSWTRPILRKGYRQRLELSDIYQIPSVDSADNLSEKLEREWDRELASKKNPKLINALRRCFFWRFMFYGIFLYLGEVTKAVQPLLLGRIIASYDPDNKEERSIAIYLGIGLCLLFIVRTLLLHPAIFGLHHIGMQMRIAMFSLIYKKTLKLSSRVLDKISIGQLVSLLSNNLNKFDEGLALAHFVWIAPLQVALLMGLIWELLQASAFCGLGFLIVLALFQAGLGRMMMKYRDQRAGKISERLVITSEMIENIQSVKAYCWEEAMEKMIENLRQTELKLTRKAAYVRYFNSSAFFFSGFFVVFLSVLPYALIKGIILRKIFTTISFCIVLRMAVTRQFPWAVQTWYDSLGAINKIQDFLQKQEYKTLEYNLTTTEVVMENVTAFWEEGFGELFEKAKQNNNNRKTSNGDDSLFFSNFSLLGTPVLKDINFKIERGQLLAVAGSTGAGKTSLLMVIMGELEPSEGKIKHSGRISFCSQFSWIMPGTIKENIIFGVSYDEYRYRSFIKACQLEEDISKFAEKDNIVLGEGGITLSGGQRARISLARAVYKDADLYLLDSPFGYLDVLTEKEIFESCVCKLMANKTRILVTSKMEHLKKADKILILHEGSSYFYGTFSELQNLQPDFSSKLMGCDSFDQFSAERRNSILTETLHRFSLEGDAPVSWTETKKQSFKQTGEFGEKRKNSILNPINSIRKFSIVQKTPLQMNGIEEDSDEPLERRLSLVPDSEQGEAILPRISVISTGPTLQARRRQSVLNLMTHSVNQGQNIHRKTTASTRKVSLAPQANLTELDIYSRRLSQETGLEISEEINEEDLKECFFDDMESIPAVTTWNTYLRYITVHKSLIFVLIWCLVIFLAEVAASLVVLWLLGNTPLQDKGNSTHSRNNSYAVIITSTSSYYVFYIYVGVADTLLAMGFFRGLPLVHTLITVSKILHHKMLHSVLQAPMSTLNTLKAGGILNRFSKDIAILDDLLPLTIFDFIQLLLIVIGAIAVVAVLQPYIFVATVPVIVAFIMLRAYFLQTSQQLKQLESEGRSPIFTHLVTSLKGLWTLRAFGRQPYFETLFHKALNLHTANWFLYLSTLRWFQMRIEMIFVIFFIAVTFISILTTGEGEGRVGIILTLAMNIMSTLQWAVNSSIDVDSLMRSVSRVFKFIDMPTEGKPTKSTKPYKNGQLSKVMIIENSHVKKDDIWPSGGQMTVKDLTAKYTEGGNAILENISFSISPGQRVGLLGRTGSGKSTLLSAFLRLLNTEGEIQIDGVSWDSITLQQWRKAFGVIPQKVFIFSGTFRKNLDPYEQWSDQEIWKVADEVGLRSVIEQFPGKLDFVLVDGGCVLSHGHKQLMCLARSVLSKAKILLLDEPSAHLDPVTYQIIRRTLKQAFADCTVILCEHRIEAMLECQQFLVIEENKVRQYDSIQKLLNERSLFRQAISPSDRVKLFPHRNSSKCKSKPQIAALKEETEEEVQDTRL

[8] = test system: CF epithelia that lack a G551D or similar allele; details: cited from earlier work
[9] = test system: CuFi-1 (ΔF508/ΔF508) airway epithelia; assay: Ussing chamber permeabilization of differentiated CF airway epithelia; type: cell-based, human; details: differentiated CuFi-1 epithelia
Experimental: A series of natural products and synthetic compounds reported previously to permeabilize liposomes, cells, and/or nasal epithelia of mice to anions (11-14) were tested using an Ussing chamber and differentiated cultures of airway epithelia derived from an immortalized airway epithelial cell line from a CF patient having the most common ΔF508/ΔF508 genotype (CuFi-1) (15). […] The capacity for AmB and C35deOAmB to transport bicarbonate across cholesterol-containing POPC liposomes was tested using an adapted ^13C NMR-based assay (18).

[10] = test system: primary cultured airway epithelia derived from humans with CF; assay: ASL pH in primary cultured airway epithelia from CF donors; type: cell-based, human; details: 9 donors, 2 μM, 48 h
Experimental: Airway epithelial cells were obtained from human trachea and bronchi of CF and non-CF specimens obtained from the Iowa Donor Network, either as post-mortem specimens or from tissue deemed not fit for transplant. Studies were approved by the University of Iowa Institutional Review Board. After pronase enzymatic digestion, cells were seeded onto collagen-coated semi-permeable membranes (0.33-1.12 cm^2, Corning 3470 polyester, 3460 polyester, 3413 polycarbonate) and grown at an air-liquid interface (52). Airway epithelial cell cultures were analyzed after they had differentiated and at least 14 days post-seeding.
as §2, §3, §4, §5

[11] = test system: ASL of primary CF epithelia; Staphylococcus aureus killed; assay: ASL antibacterial activity (S. aureus-coated gold grids); type: cell-based, human; details: 2 μM, 48 h
Experimental: Staphylococcus aureus-coated gold grids were used to measure antibacterial activity of airway epithelial cultures (3, 4). Small diameter primary cultured epithelia were used for this experiment (0.33 cm^2). Bacteria-coated gold TEM grids were placed onto the apical surface of airway epithelia for 1 min after 48 hours of perfluorocarbon (FC-72, Sigma), 2 μM AmB, or 2 μM C35deOAmB treatment. As controls, bacteria-coated grids were also placed in saline or AmB in FC-72 laid over saline to simulate the administration method for 1 minute. After removal, bacteria on the grids were assessed for viability using Live/Dead BacLight Bacterial Viability assay (Invitrogen). Viability was determined in 4-6 fields to determine the percentages of dead bacteria.

[12] = test system: protein ion channel-deficient yeast; details: cited from earlier work
yeast = details: cited from earlier work

O=C([O-])O.[Na+] [NaHCO3]
duration of transient increase in pH [1]: ~15 minutes

CCCCNc1cc(C(=O)O)cc(S(N)(=O)=O)c1Oc1ccccc1 [bumetanide]
effect of basolateral bumetanide on AmB-mediated increase in ASL height (CuFi-1 epithelia; bumetanide 500 μM): abolished the AmB-mediated increase in ASL height | ASL height after basolateral bumetanide (NuLi epithelia): decreased ASL height in NuLi epithelia

CC(C)(C)c1cc(C(C)(C)C)c(NC(=O)c2c[nH]c3ccccc3c2=O)cc1O [ivacaftor]
ASL pH, apical addition [2]: showed no increase in ASL pH | ASL pH, apical addition ([2]; listed as Ivacaftor): failed to increase ASL pH or H^14CO3^− secretion | ASL pH, apical addition ([2]; listed as ivacaftor/forskolin): an increase in ASL pH was not observed | increase in ASL pH ([3]; AmB 2 μM, ivacaftor/forskolin 10 μM): 0.2 unit | ASL pH ([3]; apical AmB 2 μM 48 h, ivacaftor/forskolin 10 μM 2 h): increase ASL pH | basolateral to apical H^14CO3^− transport, apical addition ([4]; listed as Ivacaftor): failed to increase ASL pH or H^14CO3^− secretion | basolateral to apical H^14CO3^− transport, apical addition ([4]; listed as ivacaftor/forskolin): did not | H^14CO3^− transepithelial transport [5]: increased the rate of bicarbonate efflux | H^14CO3^− transepithelial transport ([5]; listed as ivacaftor/forskolin): increase H^14CO3-transepithelial transport | decrease in viscosity [6]: about 1.5 units | increase in ASL pH [6]: 0.20 units | increase in forced expiratory volume [7]: 10% | other clinical outcomes [7]: substantially improved body weight, quality of life, and incidence of pulmonary exacerbation; also recorded: improved FEV1 | response to ivacaftor (V520F allele): refractory to treatment with ivacaftor | benefit in CF epithelia without G551D [8]: does not show benefit in CF epithelia that lack a G551D or similar allele

C[C@@H]1O[C@@H](O[C@H]2C[C@@H](O)[C@]3(CO)[C@H]4[C@H](O)C[C@]5(C)[C@@H](C6=CC(=O)OC6)CC[C@]5(O)[C@@H]4CC[C@]3(O)C2)[C@H](O)[C@H](O)[C@H]1O [ouabain]
effect of basolateral ouabain on AmB-mediated increase in ASL pH ([2]; AmB 2 μM 48 h, ouabain 10 mM): abrogated; also recorded: abolished | effect of basolateral ouabain on AmB-mediated increase in H^14CO3^− transport ([4]; AmB 2 μM, ouabain 10 mM): abrogated; also recorded: abolished

C35-deoxyamphotericin B [C35deOAmB]
change in short circuit current / permeabilization of epithelia [9]: Little or no permeabilization | ASL pH, apical addition [2]: an increase in ASL pH was not observed; also recorded: No increase in pH was observed; also recorded: did not raise ASL pH or increase H^14CO3^− secretion | basolateral to apical H^14CO3^− transport, apical addition [4]: did not; also recorded: caused no increase ASL ^14C bicarbonate; also recorded: did not raise ASL pH or increase H^14CO3^− secretion | ASL pH, apical addition [10]: did not increase ASL pH | ASL antibacterial activity (% of S. aureus killed after exposure to ASL) [11]: had no effect | ASL height, apical addition (CuFi-1 epithelia; 0.5 μM): did not increase ASL height | yeast growth rescue [12]: failed to rescue yeast growth at any tested concentration; also recorded: did not | toxicity / fungicidal activity to yeast (yeast): still maintains potent fungicidal activity
